Test system: constituent cells in the peripheral nerve-mimicking microtissue
Test: Cytoprotection by NAC and DEX in suspension culture (LIVE/DEAD, immunofluorescence)
Format: cell-based
Settings: 1 mM NAC, 3 days
From the text: As a result of limitation in oxygen and nutrient exchange during the production process of peripheral nerve-mimicking microtissues, ROS accumulates in tissues, leading to cell damage and death. The Example is intended to present a cytoprotection method by dexamethasone (DEX) and N-acetylcysteine (NAC) to inhibit cell damage and death. PNSCs collected from the monolayer culture environment are suspended in a suspension culture medium at a density of 1.0E+06/mL. […] 1.0×10^5 cells per cm^2 area of a culture vessel is seeded in the ULA T75 flask (SPL Life Sciences) culture vessel. 1 mM NAC, 1 μM DEX, NAC and DEX were added simultaneously in 15 mL of suspension culture medium and cultured for 3 days. Cell death was assessed by LIVE/DEAD staining, and, for cell death, the survival rate was evaluated by calculating the total number of cells stained with DAPI and counting the number of cells that are positive for ethidium homodimer-1 (EthD-1). Moreover, the expression of p38 MAPK and cleaved caspase, which are factors that regulate cell death, and the degree of expression of p-Akt, an anti-cell death regulating factor, were evaluated through immunofluorescence staining.

CC(=O)N[C@@H](CS)C(=O)O [NAC, N-acetylcysteine]
cytoprotective effect on constituent cells in the microtissue (survival rate, LIVE/DEAD, EthD-1) (1 μM DEX, or both in suspension culture medium): protective effect
expression of Hif, p38 MAPK, and cleaved caspase (cell death proteins) (1 μM DEX, or both, immunofluorescence staining): significantly inhibit
